Assay results published in patent US6215002A, “Pyrrolopyrrolone derivatives as inhibitors of neutrophil elastase” (priority 1996, dated 2001).
Where a name gives a salt, the structure may show the parent alone.

target: T1, human neutrophil elastase (Homo sapiens, UniProt P08246); assay: In vitro assay of human neutrophil elastase (HNE); format: biochemical; conditions: 118 nM purified human neutrophil elastase, pH 8.6, 15 min incubation at 30° C., MeO-succinyl-alanyl-alanyl-prolyl-valyl-p-nitroanilide substrate; read-out: HNE IC50
T1 sequence (P08246 30-267): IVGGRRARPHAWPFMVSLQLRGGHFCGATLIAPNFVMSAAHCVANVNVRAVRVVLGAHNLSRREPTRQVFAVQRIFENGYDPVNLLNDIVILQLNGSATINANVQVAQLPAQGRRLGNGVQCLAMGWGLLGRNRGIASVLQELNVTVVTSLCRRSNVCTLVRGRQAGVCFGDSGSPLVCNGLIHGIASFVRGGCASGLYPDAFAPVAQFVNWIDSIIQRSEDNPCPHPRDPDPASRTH
Description: In Vitro Assays of Human Neutrophil Elastase
118 nM purified human neutrophil elastase
Suitable concentrations of compound under test diluted with water from a 10 mM stock solution in dimethylsulphoxide. Values above are final concentrations after the addition of substrate solution (see below).
The mixture above is incubated for fifteen minutes at 30° C. at which time the remaining elastase activity is measured for 10 minutes in a BioTek 340i plate-reader, after the addition of 0.6 mM MeO-succinyl-alanyl-alanyl-prolyl-valyl-p-nitroanilide. The rate of increase in absorbance at 405 nm is proportional to elastase activity. Enzyme activity is plotted against concentration of inhibitor and an IC50 determined using curve fitting software.
1. The compounds were tested in the in vitro elastase test described earlier in the description.

CCC[C@H]1C(=O)N(S(C)(=O)=O)[C@H]2CCN(C(=O)CCCN(CC)CC)[C@H]12 (relative stereo) [Example 83, rel-(3R,3aR,6aS)-4-(4-Diethylamino-butyryl)-1-methanesulfonyl-3-propyl-hexahydro-pyrrolo[3,2-b]pyrrol-2-one DL-tartrate] and CCC[C@H]1C(=O)N(S(C)(=O)=O)[C@H]2CCN(C(=O)CCCN(C)C)[C@H]12 (relative stereo) [Example 85, rel-(3R,3aR,6aS)-4-(4-Dimethylamino-butyryl)-1-methanesulfonyl-3-propyl-hexahydro-pyrrolo[3,2-b]pyrrol-2-one DL-tartrate] are within 1.5-fold of each other in IC50: 0.198 µM for the first, 0.182 µM for the second.

First: CCC[C@H]1C(=O)N(S(C)(=O)=O)[C@H]2CCN(C(=O)CCN3CCOCC3)[C@H]12 (relative stereo) [Example 46, rel-(3R,3aR,6aS)-1-Methanesulfonyl-4-(3-morpholin-4-yl-propionyl)-3-propyl-hexahydro-pyrrolo[3,2-b]pyrrol-2-one]
Second: CCC[C@H]1C(=O)N(S(C)(=O)=O)[C@H]2CCN(C(=O)CCN3CCCCC3)[C@H]12 [Example 116, (3R,3aR,6aS)-1-Methanesulfonyl-4-(3-piperidin-1-yl-propionyl)-3-propyl-hexahydro-pyrrolo[3,2-b]pyrrol-2-one hydrochloride]
The IC50 of the first is 2.9-fold lower: 0.143 µM for the first, 0.417 µM for the second. The first is the more potent here.

Going from CCCCS(=O)(=O)N1C(=O)[C@H](CCC)[C@@H]2[C@@H]1CCN2S(=O)(=O)CCCN1CCCCC1 (relative stereo) [Example 167, rel-(3R,3aR,6aS)-1-(Butane-1-sulfonyl)-4-(3-piperidin-1-yl-propane-1-sulfonyl)-3-propyl-hexahydro-pyrrolo[3,2-b]pyrrol-2-one DL-tartrate] to CCC[C@H]1C(=O)N(S(=O)(=O)C(C)C)[C@H]2CCN(S(=O)(=O)CCCN3CCCCC3)[C@H]12 (relative stereo) [Example 166, rel-(3R,3aR,6aS)-4-(3-Piperidin-1-yl-propane-1-sulfonyl)-1-(propane-2-sulfonyl)-3-propyl-hexahydro-pyrrolo[3,2-b]pyrrol-2-one DL-tartrate], the IC50 rises from 0.038 µM to 0.287 µM (7.6-fold).

First: CCC[C@H]1C(=O)N(S(C)(=O)=O)[C@H]2CCN(S(=O)(=O)c3ccc([N+](=O)[O-])cc3)[C@H]12 (relative stereo) [Example 211, rel-(3R,3aR,6aS)-1-Methanesulfonyl-4-(4-nitro-benzenesulfonyl)-3-propyl-hexahydro-pyrrolo[3,2-b]pyrrol-2-one]
Second: CCC[C@H]1C(=O)N(S(C)(=O)=O)[C@H]2CCN(S(=O)(=O)c3ccccc3)[C@H]12 (relative stereo) [Example 219, rel-(3R,3aR,6aS)-4-Benzenesulfonyl-1-methanesulfonyl-3-propyl-hexahydro-pyrrolo[3,2-]pyrrol-2-one]
The IC50 of the first is 14-fold higher: 0.14 µM for the first, 0.01 µM for the second.

Going from CCCCOc1ccc(S(=O)(=O)N2CC[C@H]3[C@H]2[C@@H](C(C)C)C(=O)N3S(C)(=O)=O)cc1 (relative stereo) [Example 230, rel-(3R,3aR,6aS)-4-(4-Butoxy-benzenesulfonyl)-3-isopropyl-1-methanesulfonyl-hexahydro-pyrrolo[3,2-b]pyrrol-2-one] to CC(C)[C@H]1C(=O)N(S(C)(=O)=O)[C@H]2CCN(S(=O)(=O)c3ccc(CN(C)C)cc3)[C@H]12 (relative stereo) [Example 197, rel-(3R,3aR,6aS)-4-(4-Dimethylaminomethyl-benzenesulfonyl)-3-isopropyl-1-methanesulfonyl-hexahydro-pyrrolo[3,2-b]pyrrol-2-one hydrochloride], the IC50 rises from 0.092 µM to 0.153 µM (1.7-fold). The first is the more potent here.

Compared with CCC[C@H]1C(=O)N(S(C)(=O)=O)[C@H]2CCN(S(=O)(=O)c3ccccc3C(F)(F)F)[C@H]12 (relative stereo) [Example 225, rel-(3R,3aR,6aS)-1-Methanesulfonyl-3-propyl-4-(2-trifluoromethyl-benzenesulfonyl)-hexahydro-pyrrolo[3,2-b]pyrrol-2-one], CCC[C@H]1C(=O)N(S(=O)(=O)c2cccc3cccnc23)[C@H]2CCN(S(C)(=O)=O)[C@H]12 (relative stereo) [Example 52, rel-(3R,3aR,6aS)-4-Methanesulfonyl-3-propyl-1-(quinoline-8-sulfonyl)-hexahydro-pyrrolo[3,2-b]pyrrol-2-one] is 1.9-fold higher in IC50: 0.12 µM for the first, 0.222 µM for the second. The first is the more potent here.

Going from CC[C@H]1C(=O)N(S(=O)(=O)c2ccc3ccccc3c2)[C@H]2CCN(C(=O)OCc3ccccc3)[C@H]12 (relative stereo) [Example 4, rel-(3aS,6R,6aR)-6-Ethyl-4-(naphthalene-2-sulfonyl)-5-oxo-hexahydro-pyrrolo[3,2-b]pyrrole-1-carboxylic acid benzyl ester] to C=CC[C@H]1C(=O)N(S(=O)(=O)c2cccc3ccccc23)[C@H]2CCN(C(=O)OCc3ccccc3)[C@H]12 (relative stereo) [Example 15, rel-(3sS,6R,6aR)-6-Allyl-4-(naphthalene-1-sulfonyl)-5-oxo-hexahydro-pyrrolo[3,2-b]pyrrole-1-carboxylic acid benzyl ester], the IC50 falls from 0.134 µM to 0.01 µM (13-fold).

Compared with CCC[C@H]1C(=O)N(S(C)(=O)=O)[C@H]2CCN(S(=O)(=O)CCCN3CCN(C)CC3)[C@H]12 (relative stereo) [Example 10, rel-(3R,3aR,6aS)-1-Methanesulfonyl-4-[3-(4-methyl-piperazin-1-yl)-propane-1-sulfonyl]3-propyl-hexahydro-pyrrolo[3,2-b]pyrrol-2-one dihydrochloride], CCC[C@H]1C(=O)N(S(C)(=O)=O)[C@H]2CCN(S(=O)(=O)c3ccc(C(=O)NCCN4CCCCC4)cc3)[C@H]12 (relative stereo) [Example 121, rel-4-(4-Methanesulfonyl-5-oxo-6R-propyl-hexahydro-(3aS,6aR)-pyrrolo[3,2-b]pyrrole-1-sulfonyl)-N-(2-piperidin-1-yl-ethyl)-benzamide hydrochloride] is 2.8-fold lower in IC50: 0.039 µM for the first, 0.014 µM for the second. The second is the more potent here.

Compared with CCC[C@H]1C(=O)N(S(=O)(=O)c2ccc3ccccc3c2)[C@H]2CCN(S(=O)(=O)Cc3cccc(-c4nnn[nH]4)c3)[C@H]12 (relative stereo) [Example 23, rel-(3R,3aR,6aS)-1(Naphthalene-2-sulfonyl)-3-propyl-4-[3-(1H-tetrazol-5-yl)-phenylmethanesulfonyl]-hexahydro-pyrrolo[3,2-b]pyrrole-2-one], C=CC[C@H]1C(=O)N(S(=O)(=O)c2cccc(S(=O)(=O)N(C)C)c2)[C@H]2CCN(C(=O)OCc3ccccc3)[C@H]12 (relative stereo) [Example 37, rel-(3aS,6R,6aR)-6-Allyl-4-(3-dimethylsulfamoyl-benzenesulfonyl)-5-oxo-hexahydro-pyrrolo[3,2-b]pyrrole-1-carboxylic acid benzyl ester] is 1.8-fold higher in IC50: 0.075 µM for the first, 0.138 µM for the second. The first is the more potent here.

CCC[C@H]1C(=O)N(S(C)(=O)=O)[C@H]2CCN(C(=O)CCN3C(C)CCCC3C)[C@H]12 (relative stereo) [Example 92, rel-(3R,3aR,6aS)-4-[3-(2,6-Dimethyl-piperidin-1-yl)-propionyl]-1-methanesulfonyl-3-propyl-hexahydro-pyrrolo[3,2-b]pyrrol-2-one hydrochloride] and C=CC[C@H]1C(=O)N(S(=O)(=O)c2ccc3c(c2)CCCC3)[C@H]2CCN(C(=O)OCc3ccccc3)[C@H]12 (relative stereo) [Example 20, rel-(3aS,6R,6aR)-6-Allyl-5-oxo-4-(5,6,7,8-tetrahydro-naphthalene-2-sulfonyl)-hexahydro-pyrrolo[3,2-b]pyrrole-1-carboxylic acid benzyl ester] are within 1.5-fold of each other in IC50: 0.07 µM for the first, 0.057 µM for the second.
